According to patent US6207596A, “Disposable premoistened wipe containing an antimicrobial protease inhibitor” (The Procter & Gamble Company, priority 1998, dated 2001):

How the values were obtained:
fecal trypsin = assay: Method 2a: Efficacy of Protease Inhibitors in Fecal Trypsin; format: biochemical; details: pooled infant fecal suspension; 25° C., 405 nm corrected by 490 nm
Description: (§1) Standard in vitro assays for determining enzyme activity, and inhibition of enzyme activity, are well known. The reagents used to conduct these tests are generally commercially available. In general, a simple system comprises an enzyme-specific substrate which, when hydrolyzed by the enzyme, produces a colored product. The activity of the enzyme is measured spectrophotometrically as the degree of development of the colored product (i.e.; the rate of color change) over a predetermined time period.
(§2) The inhibitory activity of an enzyme inhibitor may be calculated according to the following equation: […]
(§3) In the methods, v and vi are measured as the change in absorbency (optical density, OD) at a given wavelength/time (e.g., minutes). […]
Serial dilutions of a protease inhibitor are made using distilled water. A 0.7 ml aliquot of each dilution of protease inhibitor to be evaluated is added to a microcuvette. […]
A volume of 0.1 mL of fecal suspension is added to the microcuvette and mixed. The absorbency of the mixture at 490 nm is measured with the spectrophotometer. […] The absorbency of the mixture at 405 nm is then measured with the spectrophotometer over a period of 5 minutes at 25° C. These […] in order to correct for any background interference. […]

Candida albicans = assay: Method 3: antimicrobial activity (NCCLS dilution, MIC), C. albicans; format: cell-based, Candida albicans ATCC 10231; details: ATCC10231, ATCC 10231, diluted with distilled water, 24 hours at 37° C., read-out: Minimal Inhibitory Concentration
Description: (§4) 3. Method for Determining the Activity of Antimicrobial Agents:
(§5) This method is used to determine the antimicrobial activity of antimicrobial agents. The antimicrobial activity of an antimicrobial agent is tested according to the National Committee for Clinical Laboratory Standards ("NCCLS") Methods. The NCCLS Dilution Antimicrobial Susceptibility Test for Bacteria Which Grow Aerobically is used (i.e.; NCCLS Document M7-A2, 1990).
(§6) Serial two-fold dilutions of the antimicrobial agent are made in trypticase soy broth in a microtiter plate (in the case of hexamidine diisethionate a 1000 μM starting concentration is recommended). Microorganism inocula are prepared by harvesting colonies from agar plates into saline and adjusting the optical density of the solution to be equivalent to the 0.5 McFarland standard. Each microorganism suspension is diluted 1:10 and 10 microliters of the suspension added to each microtiter well.
(§7) The microtiter plates are sealed and incubated for 24 hours at 37° C. The highest dilution of the antimicrobial agent preventing growth is recorded as the minimal inhibitory concentration ("MIC").
(§8) Referring to Table II, the antimicrobial activity of hexamidine diisethionate on three different microorganisms is shown. For purposes of this example, hexamidine diisethionate was diluted with distilled water and evaluated according to Method 3 above. […]

Escherichia coli = assay: Method 3: antimicrobial activity (NCCLS dilution, MIC), E. coli; format: cell-based; details: ATCC25922, ATCC 25922, diluted with distilled water, 24 hours at 37° C., read-out: Minimal Inhibitory Concentration
Description: as §4, §5, §6, §7, §8

Staphylococcus aureus = assay: Method 3: antimicrobial activity (NCCLS dilution, MIC), S. aureus; format: cell-based, Staphylococcus aureus ATCC 25923; details: ATCC25923, ATCC 25923, diluted with distilled water, 24 hours at 37° C., read-out: Minimal Inhibitory Concentration
Description: as §4, §5, §6, §7, §8

[1] = tested on: purified trypsin (human pancreatic trypsin); assay: Method 1a: Efficacy of Protease Inhibitors in Purified Trypsin; format: biochemical; details: 25° C., 405 nm; inhibitor diluted in distilled water
Description: as §1, §2, §3
Serial dilutions of a protease inhibitor are made using distilled water. A 50 μl aliquot of each serial dilution of protease inhibitor to be evaluated is added to a microcuvette containing 0.020 ml of trypsin buffer and 0.105 ml of purified trypsin. […]
After incubating, 0.025 ml of the 4 mM N-carbobenzyloxy-arginine-p-nitroanilide substrate solution is added to the microcuvette. […] The absorbency of the mixture is then measured at a wavelength of 405 nm over a period of 10 minutes at a temperature of 25° C. […]

## N=C(N)c1ccc(OCCCCCCOc2ccc(C(=N)N)cc2)cc1 [hexamidine diisethionate]
Fecal trypsin
  IC50: 2300 nM
Candida albicans
  MIC: 13 µM
Escherichia coli
  MIC: 53 µM
Staphylococcus aureus
  MIC: 3 µM
[1]
  IC50: 2500 nM
